Structures can show the parent of a compound that is named as a salt.
Molecular target: T1, human high molecular weight urokinase (Homo sapiens, UniProt P00749)
T1 construct: human high molecular weight urokinase; purchased American Diagnostica, Greenwich, Conn
Test: Urokinase Direct Assay
Format: biochemical
Settings: inhibitor concentration of 1 mM; for residual urokinase activity at 1000 µM: read-out: uPA Direct: percentage of residual urokinase activity relative to inhibitor-free controls, heading: uPA Direct: percentage of residual urokinase activity relative to inhibitor-free controls
Experimental: (i) A direct chromogenic assay in which urokinase cleaves a synthetic tripeptide p-nitroanilide (pNA) urokinase substrate.
Incubations were carried out at 37° C. for approximately 2 hours or until adequate yellow color developed. Color was quantitated by measuring absorbance at 405 nm (A405) using a Titertek Multiskan MCC/340 MK II microtiter plate spectrophotometer.

| Compound | residual urokinase activity at 1000 µM [%] | uPA Direct: percentage of residual urokinase activity relative to inhibitor-free controls [%] |
| --- | --- | --- |
| COc1cccc2sc(C(=N)N)cc12 [Compound 57, 4-Methoxybenzo[b]thiophene-2-carboxamidine hydrochloride] | 12 |  |
| CC(C)c1cccc2sc(C(=N)N)cc12 [Compound 8, 4-(1-Methylethyl)benzo[b]thiophene-2-carboxamidine hydrochloride] | 0.9 |  |
| 4-(7-Amidino-E-hept-1-enyl)benzo[b]thiophene-2-carboxamidine bishydrochloride [Compound 33] |  | 1.3 |
| N=C(N)c1cc2c(CCc3ccccc3)cccc2s1 [Compound 15, 4-(2-Phenylethyl)benzo[b]thiophene-2-carboxamidine hydrochloride] | 0.35 |  |
| N=C(N)c1ccc2ccsc2c1 [Compound 315, Benzo[b]thiophene-6-carboxamidine hydrochloride] | 21 |  |
| N=C(N)c1cc2cc(F)ccc2s1 [Compound 101, 5-Fluorobenzo[b]thiophene-2-carboxamidine hydrochloride] | 12.7 |  |
| N=C(N)c1cc2c(Cl)c(I)ccc2s1 [Compound 203, 4-Chloro-5-iodobenzo[b]thiophene-2-carboxamidine hydrochloride] | 3.5 |  |
| CC(c1ccccc1)c1cccc2sc(C(=N)N)cc12 (centres unmarked) [Compound 16, 4-(1-Phenylethyl)benzo[b]thiophene-2-carboxamidine hydrochloride] | 1.4 |  |
| N=C(N)NC(=O)c1cc2ccccc2s1 [Compound 320, N-Amidino benzo[b]thiophene-2-carboxamide hydrochloride] | 84 |  |
| N=C(N)c1cc2cc(Cl)ccc2s1 [Compound 102, 5-Chlorobenzo[b]thiophene-2-carboxamidine hydrochloride] | 2.9 |  |
| N=C(N)c1cc2c(Cl)cccc2s1 [Compound 3, 4-Chlorobenzo[b]thiophene-2-carboxamidine hydrochloride] | 3 |  |
| CCC=Cc1ccc2sc(C(=N)N)cc2c1 [Compound 117, 5-(E/Z-But-1-enyl)benzo[b]thiophene-2-carboxamidine hydrochloride] | 1.1 |  |
| CCC(C)=Cc1ccc2sc(C(=N)N)cc2c1 [Compound 118, 5-(E/Z-2-Methylbut-1-enyl)benzo[b]thiophene-2-carboxamidine hydrochloride] | 1.2 |  |
| N=C(N)c1cc2c(C(F)(F)F)cccc2s1 [Compound 54, 4-(Trifluoromethyl)benzo[b]thiophene-2-carboxamidine hydrochloride] | 2.4 |  |
| N=C(N)c1cc2c(CCC3CC3)cccc2s1 [Compound 14, 4-(2-Cyclopropylethyl)benzo[b]thiophene-2-carboxamidine hydrochloride] | 0.54 |  |
| N=C(N)c1cc2cc(CCC3CC3)ccc2s1 [Compound 112, 5-(2-Cyclopropylethyl)benzo[b]thiophene-2-carboxamidine hydrochloride] | 3.3 |  |
| C=C(C)c1cccc2sc(C(=N)N)cc12 [Compound 18, 4-(1-Methylethenyl)benzo[b]thiophene-2-carboxamidine hydrochloride] | 1.3 |  |
| CC(C)C=Cc1ccc2sc(C(=N)N)cc2c1 [Compound 119, 5-(E/Z-3-Methylbut-1-enyl)benzo[b]thiophene-2-carboxamidine hydrochloride] | 4.9 |  |

| Compound | residual urokinase activity at 1000 µM [%] | uPA Direct: percentage of residual urokinase activity relative to inhibitor-free controls [%] |
| --- | --- | --- |
| N=C(N)c1cc2c(C=CC3CC3)cccc2s1 [Compound 34, 4-(E/Z-2-Cyclopropylethenyl)benzo[b]thiophene-2-carboxamidine. hydrochloride] | 0.46 |  |
| C#Cc1ccc2sc(C(=N)N)cc2c1 [Compound 123, 5-(Ethynyl)benzo[b]thiophene-2-carboxamidine hydrochloride] | 2.5 |  |
| N=C(N)c1cc2cccnc2s1 [Compound 318, Pyrido[2,3-b]thiophene-2-carboxamidine hydrochloride] | 55 |  |
| N=C(N)c1cc2c(C=O)cccc2s1 [Compound 55, 4-Formylbenzo[b]thiophene-2-carboxamidine hydrochloride] | 4.8 |  |
| N=C(N)c1cc2c(-c3ccc([N+](=O)[O-])cc3)cccc2s1 [Compound 46, 4-(4-Nitrophenyl)benzo[b]thiophene-2-carboxamidine hydrochloride] | 1 |  |
| N=C(N)c1cc2cc3ccccc3cc2s1 [Compound 313, Naphtho[2,3-b]thiophene-2-carboxamidine hydrochloride] | 11 |  |
| N=C(N)c1cc2ccc(I)cc2s1 [Compound 301, 6-Iodobenzo[b]thiophene-2-carboxamidine hydrochloride] | 13.7 |  |
| N=C(N)c1cc2c(SCc3ccccc3)cccc2s1 [Compound 60, 4-(Benzylthio)benzo[b]thiophene-2-carboxamidine hydrochloride] | 1.3 |  |
| Cc1ccc2cc(C(=N)N)sc2c1 [Compound 303, 6-Methylbenzo[b]thiophene-2-carboxamidine hydrochloride] | 12 |  |
| CC(C)(O)C#Cc1cccc2sc(C(=N)N)cc12 [Compound 42, 4-(3-Hydroxy-3-methylbut-1-ynyl)benzo[b]thiophene-2-carboxamidine hydrochloride] | 0.6 |  |
| Cc1ccc2sc(C(=N)N)cc2c1Br [Compound 202, 4-Bromo-5-methylbenzo[b]thiophene-2-carboxamidine hydrochloride] | 3 |  |
| CC=Cc1ccc2sc(C(=N)N)cc2c1 [Compound 116, 5-(E/Z-Prop-1-enyl)benzo[b]thiophene-2-carboxamidine hydrochloride] | 1.6 |  |
| CC(C)CCc1ccc2sc(C(=N)N)cc2c1 [Compound 110, 5-(3-Methylbutyl)benzo[b]thiophene-2-carboxamidine hydrochloride] | 4.2 |  |
| N=C(N)c1sc2ccccc2c1O [Compound 305, 3-Hydroxybenzo[b]thiophene-2-carboxamidine hydrochloride] | > 90 |  |
| CCCc1ccc2sc(C(=N)N)cc2c1 [Compound 107, 5-Propylbenzo[b]thiophene-2-carboxamidine hydrochloride] | 2.6 |  |
| N=C(N)c1ccc2sccc2c1 [Compound 314, Benzo[b]thiophene-5-carboxamidine hydrochloride] | 43 |  |
| N=C(N)c1cc2sccc2s1 [Compound 322, Thieno[3,2-b]thiophene-2-carboxamidine hydrochloride] | 2.7 |  |
